# Experiment: Henry solubility constant Hcp at 310 K (mol/(m3 Pa))
# Conditions: reference: Eger et al. (1999)
row,Henry solubility constant Hcp at 310 K,SMILES
1,0.43,"OCC(F)(F)F [2,2,2-trifluoroethanol]"
2,0.069,"OCC(F)(F)C(F)(F)F [2,2,3,3,3-pentafluoro-1-propanol]"
3,0.1,"OC(C(F)(F)F)C(F)(F)F [1,1,1,3,3,3-hexafluoro-2-propanol]"
4,0.064,"OCC(F)(F)C(F)(F)C(F)(F)C(F)(F)C(F)(F)C(F)F [2,2,3,3,4,4,5,5,6,6,7,7-dodecafluoro-1-heptanol]"
5,0.009,"CC(O)C(F)(F)C(F)(F)C(F)(F)F (configuration not stated) [3,3,4,4,5,5,5-heptafluoro-2-pentanol]"
6,0.32,"OCC(F)(F)C(F)C(F)(F)F (configuration not stated) [2,2,3,4,4,4-hexafluoro-1-butanol]"
7,0.25,"OCC(F)(F)C(F)(F)C(F)(F)C(F)F [2,2,3,3,4,4,5,5-octafluoro-1-pentanol]"
8,0.75,"OCC(F)(F)C(F)F [2,2,3,3-tetrafluoro-1-propanol]"
9,0.13,"CC(O)C(F)(F)F (configuration not stated) [1,1,1-trifluoro-2-propanol]"

# The next lines start with the compound.
row,SMILES,Henry solubility constant Hcp at 310 K
1,CCCCCCO [1-hexanol],0.35
2,"OCC(F)(F)C(F)(F)C(F)(F)C(F)(F)C(F)(F)F [2,2,3,3,4,4,5,5,6,6,6-undecafluoro-1-hexanol]",0.0017
3,"CC(O)(C(F)(F)F)C(F)(F)F [1,1,1,3,3,3-hexafluoro-2-methyl-2-propanol]",0.018
4,"OCC(F)(F)C(F)(F)C(F)(F)C(F)(F)C(F)(F)C(F)(F)C(F)(F)F [2,2,3,3,4,4,5,5,6,6,7,7,8,8,8-pentadecafluoro-1-octanol]",0.00023
5,"OCCC(F)(F)C(F)(F)C(F)(F)C(F)(F)C(F)(F)C(F)(F)F [1H,1H,2H,2H-perfluoro-1-octanol]",0.00094
6,CCO [ethanol],1
7,"OCC(F)(F)C(F)(F)C(F)(F)C(F)(F)C(F)(F)C(F)(F)F [2,2,3,3,4,4,5,5,6,6,7,7,7-tridecafluoro-1-heptanol]",0.0006
8,CCCCCCCCO [1-octanol],0.27
